Assay results as given in patent publication US5006515A, “Pharmaceuticals, phosphorus-containing 2-isoxazolines and isoxazoles contained therein” (Hoechst Aktiengesellschaft, priority 1987, dated 1991).

Columns and labels:
[1] = Acute toxicity; design: species or system mice; settings: mouse, in vivo, single dose, mortality within 7 days
Procedure: The LD50 values were determined by the standard method via the mortality occurring within 7 days in NMRI (Naval Medical Research Institute) mice (6 animals per dose) after a single intraperitoneal (i.p.) or intravenous (i.v.) dose.

[2] = test system: active Arthus reaction; assay: Active Arthus reaction in the rat; format: in vivo, Sprague-Dawley rats; settings: 4 h after ovalbumin challenge; for change in vivo at 50 mg/kg / Active Arthus reaction % change: oral dose 50 mg/kg
Procedure: The experimental animals used were female and male Sprague-Dawley rats with a body weight between 80 and 100 g which received subcutaneous injections into the tail-head of 0.5 ml of an emulsion of pertussis vaccine and ovalbumin in liquid paraffin. After two weeks, the rats were divided into groups each of 8 animals. 24 hours and 1 hour before induction of the Arthus reaction by injection of 0.1 ml of a 0.4% strength ovalbumin solution into the right hind paw, the particular test substance or the pure vehicle (positive control) was administered orally, sodium chloride solution was injected into the left paw. One group of unsensitized animals (negative control group) was likewise treated with ovalbumin in order to be able to rule out nonspecific reactions to the protein. The parameter used for measuring the action of the product was the percentage change in the increase in paw volume compared with that in the control group which was sensitized but untreated (positive control) 4 hours after ovalbumin challenge, when the swelling had reached its maximum.

[3] = test system: DTH reaction to sheep erythrocytes; assay: Delayed-type hypersensitivity (DTH) reaction to sheep erythrocytes; format: in vivo, female NMRI mice; settings: single i.p. dose of 40 mg/kg; maximal stimulation by Example 34 = 100%; 40 mg/kg
Procedure: Groups each comprising 5 female NMRI mice with a body weight of 18 to 20 g were formed, and each animal was given 10^6 or 10^9 sheep red blood cells intravenously. Sheep erythrocytes are regarded in immunology as a standard antigen with which it is possible to check cellular and humoral immunoreactivity, especially the functioning of the T-cell-dependent component of the immune system, the so-called T-helper cells. The test substances were administered, in intraperitoneal doses of 5 to 100 mg/kg in physiological saline, at the same time as the antigen. After 5 days, each animal was given an injection of 2×10^8 sheep erythrocytes into the footpad. 24 hours later, the swelling of the foot was measured. The foot swelling is induced by a skin reaction of the delayed type (DTH reaction) and, as is known to those skilled in the art, is a measure of the cellular immune response (J. Immunol. 101 (1968), 830-845). The test results obtained with the product of Example 34, by way of example, are compiled in Table 7 and illustrate that the compounds of the formula I--administered prophylactically--are able to increase the cellular immune response after immunization with the antigen by stimulation of the T-cell system, with the stimulant action reaching its optimum in this experiment at a dose of 25 mg/kg.

[4] = target: leucine aminopeptidase; assay: Inhibition of leucine aminopeptidase; format: biochemical; settings: substrate L-leucine 4-nitroanilide
Procedure: (§1) The activity of the enzyme aminopeptidase B was determined photometrically using the substrate L-lysine 2-naphthylamide at room temperature. […] In the same way, the inhibition of leucine aminopeptidase was investigated using L-leucine 4-nitroanilide as enzyme substrate. The IC50 values are compiled in Table 6.

[5] = target: aminopeptidase B (Homo sapiens, UniProt Q9H4A4); assay: Inhibition of aminopeptidase B; format: biochemical
Procedure: as §1

[6] = test system: cGvH reaction; assay: Chronic graft-versus-host (cGvH) reaction in the mouse; format: in vivo, female mice of (DBA/2×C57Bl/6)F1 generation; settings: 6 weeks
Description: Graft-versus-host disease, which derives from an immune reaction originating from the transplant and directed against the host tissue, is characterized, in the acute form which almost always has a fatal outcome, by enlargement of the spleen, swelling of the liver, hypertrophy of the lymph nodes, hemolytic anemia, lowered immunoglobulin and complement levels and diminished immunoreactivity. The chronic form of the disease, which has a somewhat milder course, leads to lymphadenopathy, immune complex glomerulonephritis and excessive formation of non-organ-specific autoantibodies. A syndrome with similar features is systemic lupus erythematosus (SLE) which is likewise one of the autoimmune diseases.
The investigation of the compounds used according to the invention for the progress of the cGvH reaction induced in female mice of (DBA/2×C57Bl/6)F1 generation by two injections of spleen and thymus cells mixed together are carried out in the experimental system described by S. Popovic and R. R. Bartlett (Agents and Actions 21 (1987), 284-286), with 5×10^7 DBA/2 cells, likewise obtained from female donor animals, being administered intravenously in 0.2 ml of culture medium each time at a time interval of 7 days. For a reliable assessment of the outbreak and course of the disease, a group of healthy animals was included as negative control in all experiments. The 6-week oral treatment of the animals with the disease started on day 21 after the first donor cell injection, with the test substances or the pure vehicle (positive control) being administered once a day. The vehicle used was an aqueous CMC (carboxymethylcellulose sodium salt) solution containing 100 mg of CMC per 1. The volume administered was 10 ml per kg body weight. The individual experimental groups each comprised 10 animals.
The action of the products was assessed on the basis of the inhibition of proteinuria and the cGvH index. As a consequence of the destruction of nephrons by deposition of immune complexes on the basement membranes of the glomeruli, the animals with the disease developed pronounced proteinuria, which correlates with the extent of glomerulonephritis and can easily be quantified via the increase in the amount of protein excreted with the urine. The second parameter measured, the cGvH index, relates to the great enlargement of the spleen (splenomegaly) caused by the cGvH reaction. It is defined as the quotient of the product of the spleen and body weights of the animals with the disease and of the product of the corresponding weights of healthy untreated animals on the negative control group, and is a reliable measure of the intensity of the disease (the greater this index, the more severe the disease).

[7] = test system: peritoneal macrophages; assay: Activation of peritoneal macrophages: chemiluminescence (oxidative metabolism); settings: single i.p. dose of 40 mg/kg; maximum activation by Example 34 = 100%; 40 mg/kg
[8] = test system: peritoneal macrophages; assay: Stimulation of the release of lysosomal enzymes from peritoneal macrophages (exocytosis); settings: single i.p. dose of 40 mg/kg; maximum activation by Example 34 = 100%; 40 mg/kg

Sequence of aminopeptidase B (Q9H4A4 whole entry, species assumed): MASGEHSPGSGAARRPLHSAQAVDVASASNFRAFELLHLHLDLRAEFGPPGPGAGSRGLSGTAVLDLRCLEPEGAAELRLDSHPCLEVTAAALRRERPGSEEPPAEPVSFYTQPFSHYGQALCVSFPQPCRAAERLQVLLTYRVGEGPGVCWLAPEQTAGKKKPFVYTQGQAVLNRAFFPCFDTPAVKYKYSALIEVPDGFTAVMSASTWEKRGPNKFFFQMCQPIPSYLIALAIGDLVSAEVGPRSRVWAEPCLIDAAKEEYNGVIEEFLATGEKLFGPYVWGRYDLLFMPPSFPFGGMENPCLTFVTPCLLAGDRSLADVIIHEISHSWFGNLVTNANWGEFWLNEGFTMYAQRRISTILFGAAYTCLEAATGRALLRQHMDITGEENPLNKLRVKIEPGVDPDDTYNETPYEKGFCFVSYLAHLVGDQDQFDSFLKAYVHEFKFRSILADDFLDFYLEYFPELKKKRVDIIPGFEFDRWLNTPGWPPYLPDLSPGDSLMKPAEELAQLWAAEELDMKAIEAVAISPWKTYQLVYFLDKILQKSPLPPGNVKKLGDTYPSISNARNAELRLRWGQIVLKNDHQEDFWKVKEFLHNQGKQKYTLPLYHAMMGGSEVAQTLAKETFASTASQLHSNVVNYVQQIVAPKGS

O=P(O)(O)C1CC(c2ccccc2)=NO1 (stereo not drawn) [Example 35]
LD50 at 168 h ([1]; iv): > 200 mg/kg
change in vivo at 35 mg/kg ([2]; Rattus norvegicus, po, 4 h, oral dose 35 mg/kg, read-out: Active Arthus reaction % change): -16%
Relative stimulation of the DTH reaction [3]: 98%
Leucine aminopeptidase IC50 [4]: 57 μug/ml

COP(C)(=O)C1CC(c2ccccc2)=NO1 (stereo not drawn) [Example 13, Methyl 3-phenyl-2-isoxazolin-5-yl(P-methyl)phosphinate]
IC50 [5]: 418 µM
LD50 at 168 h ([1]; iv): > 200 mg/kg
change in vivo at 50 mg/kg ([2]; Rattus norvegicus): -13%

O=P(O)(O)C1CC(c2ccccc2)=NO1 (single isomer, unassigned; (+)) [Example 61, (+)-3-Phenyl-2-isoxazolin-5-ylphosphonic acid]
Active Arthus reaction % change [2]: +52%
Relative stimulation of the DTH reaction [3]: 108%
Leucine aminopeptidase IC50 [4]: 26 μug/ml

O=P(O)(O)C1CC(c2ccccc2)=NO1 (stereo not drawn) [Example 36]
Relative stimulation of the DTH reaction [3]: 102%
Leucine aminopeptidase IC50 [4]: 56 μug/ml

O=P(O)(O)C1CC(c2ccccc2)=NO1 (stereo not drawn) [Example 37]
Relative stimulation of the DTH reaction [3]: 77%
Leucine aminopeptidase IC50 [4]: 52 μug/ml

CP(=O)(O)C1CC(c2ccccc2)=NO1 (stereo not drawn) [Example 63, 3-Phenyl-2-isoxazolin-5-yl(P-methyl)phosphinic acid]
LD50 at 168 h ([1]; ip): 300 to 600 mg/kg
change in vivo at 50 mg/kg ([2]; Rattus norvegicus, po, 4 h): -48%
% inhibition Proteinuria ([6]; oral dose 15 mg/kg/day): 76%
% inhibition cGvH index ([6]; oral dose 15 mg/kg/day): 54%
% inhibition Proteinuria ([6]; oral dose 30 mg/kg/day): 61%
% inhibition cGvH index ([6]; oral dose 30 mg/kg/day): 48%

COc1ccc(-c2cc(P(=O)(O)O)on2)cc1 [Example 54]
LD50 at 168 h ([1]; iv): > 200 mg/kg
change in vivo at 40 mg/kg ([2]; Rattus norvegicus, po, 4 h, oral dose 40 mg/kg): -57%
% inhibition Proteinuria ([6]; oral dose 15 mg/kg/day): 27%
% inhibition cGvH index ([6]; oral dose 15 mg/kg/day): 16%
% inhibition Proteinuria ([6]; oral dose 50 mg/kg/day): 64%
% inhibition cGvH index ([6]; oral dose 50 mg/kg/day): 18%

COP(=O)(OC)C1CC(c2ccccc2)=NO1 (single isomer, unassigned) [Example 60a, Dimethyl (+)- and (-)-3-phenyl-2-isoxazolin-5-ylphosphonate]
Relative stimulation of macrophage activity: Chemiluminescence [7]: 51%
Relative stimulation of macrophage activity: Exocytosis [8]: 88%

COP(=O)(OC)C1CC(c2ccccc2)=NO1 (single isomer, unassigned) [Example 60b, Dimethyl (+)- and (-)-3-phenyl-2-isoxazolin-5-ylphosphonate]
Relative stimulation of macrophage activity: Chemiluminescence [7]: 24%
Relative stimulation of macrophage activity: Exocytosis [8]: 63%

O=P(O)(O)C1CC(c2ccccc2)=NO1 (single isomer, unassigned; (-)) [Example 62, (-)-3-Phenyl-2-isoxazolin-5-ylphosphonic acid]
Active Arthus reaction % change [2]: +16%
Relative stimulation of the DTH reaction [3]: 83%
Leucine aminopeptidase IC50 [4]: 130 μug/ml
